Test results published in paper PMC6689975, “Novel Cell Wall Antifungals Reveal a Special Synergistic Activity in pbr1 Mutants Resistant to the Glucan Synthesis Antifungals Papulacandins and Echinocandins” (Frontiers in Microbiology, 2019).
In brackets after ≈: the same amount, converted by molar mass. Where two headings read alike, the source gives them in different places.

Key:
Experiment in all cases: microbe, parasite or virus in culture
[1] = system: T1, Schizosaccharomyces pombe S. p.^a (wild-type 972 h-); parameters: species or system yeast; micro tube dilution MIC in YES (± 1.2 M sorbitol), complete growth inhibition by turbidity; settings: 48 h
T1 construct: 972 h-
Experimental: (§1) Standard YEPD (Yeast Extract, Peptone, Dextrose) ([Sherman, 1990]), YEPD+S (YEPD with 1.2M sorbitol), YES (Yeast Extract, Dextrose and Supplements of Adenine, Histidine, Leucine, Uracil and Lysine) ([Alfa et al., 1993]) and YES+S (YES with 1.2 M sorbitol) ([Ribas et al., 1991]; [Ishiguro et al., 1997]), media were used for determination of MIC values of the tested compounds. A stock solution of 10 mg/ml of each tested compounds was prepared in DMSO and serial dilutions in DMSO were prepared. The final concentration of DMSO was 2% in the YEPD medium. […] The serial dilutions of compounds were dispensed into test tubes with 1 ml of YEPD or YEPD+S to make final concentrations of 200, 100, 50, 25, 12.5, 6.26, 3.125, 1.6, 0.8 and 0.4 μg/ml. The tested yeast strains were previously grown in YEPD, YEPD+S, YES or YES+S agar plates at 30°C for 48 h. Micro-culture assays of large numbers of samples were analyzed as described) ([Martins et al., 2011]). Essentially early log-phase cells were grown in YEPD, YEPD+S, YES or YES+S (1.2 M sorbitol) medium at 30°C, and diluted to cell density of 4 X 10^6 cells/ml in YEPD, YEPD+S, YES or YES+S medium and aliquots of 100 μl were dispensed into each small test tube (3 ml test tube size). Then, another 100 μl of YEPD, YEPD+S, YES or YES+S with the corresponding dilution of each compound at 2X concentration (4% DMSO) was added. The final volume was 200 μl, with the cells diluted to of 2 X 10^6 cells/ml and each compound diluted to 1X final concentration, containing increasing concentrations of antifungal (0, 1, 2, 5, 10, 20, 50, 100 and 200 μg/ml) or an equivalent volume of solvent (2% DMSO). The cells were grown at 30°C in an orbital roller and turbidity was analyzed after 24 and 48 h of incubation. The MIC was determined as the minimal concentration of tested compound that produced complete cell growth inhibition and kept the medium clear. The MIC values were calculated from at least three independent experiments.

[2] = system: Candida albicans C. a.^f (Tables 5, 6); parameters: species or system yeast; micro tube dilution MIC in YES (± 1.2 M sorbitol), complete growth inhibition by turbidity; settings: 48 h
Experimental: as §1

[3] = system: T2, Saccharomyces cerevisiae S. c.^d (wild-type CVX12-3A); parameters: species or system yeast; micro tube dilution MIC in YES (± 1.2 M sorbitol), complete growth inhibition by turbidity; settings: 48 h
T2 construct: CVX12-3A
Experimental: as §1

[4] = system: T1, Schizosaccharomyces pombe S. p.^a (wild-type 972 h-); parameters: species or system yeast; tube dilution MIC in YEPD (± 1.2 M sorbitol), complete growth inhibition by turbidity; settings: 48 h, YEPD + 1.2 M sorbitol
Experimental: as §1, with “h. For inoculation of YEPD or YEPD+S macro test tubes a suspension of tested fungus was produced with 10^5 cfu/ml (cfu - colony forming unit). 10 μl of suspension was used for inoculation of each tube. After 48 h incubation at 30°C the tubes were checked. The MIC value is the lowest concentration of the tested compound that could inhibit the fungal growth and the medium remained clear. From each tube 10 μl culture was plated on YEPD agar medium to check the contamination. The MIC tests were carried out in three parallels.” for “h.”

[5] = system: Candida albicans C. a.^g (Table 4); parameters: species or system yeast; tube dilution MIC in YEPD (± 1.2 M sorbitol), complete growth inhibition by turbidity; settings: 48 h, YEPD + 1.2 M sorbitol
Experimental: as §1, with “h. For inoculation of YEPD or YEPD+S macro test tubes a suspension of tested fungus was produced with 10^5 cfu/ml (cfu - colony forming unit). 10 μl of suspension was used for inoculation of each tube. After 48 h incubation at 30°C the tubes were checked. The MIC value is the lowest concentration of the tested compound that could inhibit the fungal growth and the medium remained clear. From each tube 10 μl culture was plated on YEPD agar medium to check the contamination. The MIC tests were carried out in three parallels.” for “h.”

[6] = system: T2, Saccharomyces cerevisiae S. c.^d (wild-type CVX12-3A); parameters: species or system yeast; tube dilution MIC in YEPD (± 1.2 M sorbitol), complete growth inhibition by turbidity; settings: 48 h, YEPD + 1.2 M sorbitol
Experimental: as §1, with “h. For inoculation of YEPD or YEPD+S macro test tubes a suspension of tested fungus was produced with 10^5 cfu/ml (cfu - colony forming unit). 10 μl of suspension was used for inoculation of each tube. After 48 h incubation at 30°C the tubes were checked. The MIC value is the lowest concentration of the tested compound that could inhibit the fungal growth and the medium remained clear. From each tube 10 μl culture was plated on YEPD agar medium to check the contamination. The MIC tests were carried out in three parallels.” for “h.”

[7] = system: Candida albicans C. a.^f (Table 4); parameters: species or system yeast; tube dilution MIC in YEPD (± 1.2 M sorbitol), complete growth inhibition by turbidity; settings: 48 h, YEPD + 1.2 M sorbitol
Experimental: as §1, with “h. For inoculation of YEPD or YEPD+S macro test tubes a suspension of tested fungus was produced with 10^5 cfu/ml (cfu - colony forming unit). 10 μl of suspension was used for inoculation of each tube. After 48 h incubation at 30°C the tubes were checked. The MIC value is the lowest concentration of the tested compound that could inhibit the fungal growth and the medium remained clear. From each tube 10 μl culture was plated on YEPD agar medium to check the contamination. The MIC tests were carried out in three parallels.” for “h.”

Row | Structure (SMILES) | MIC ([1]; read-out: MIC) | MIC ([2]; read-out: MIC) | MIC ([3]; read-out: MIC) | MIC ([1]; YES + 1.2 M sorbitol) | MIC ([2]; YES + 1.2 M sorbitol) | MIC ([3]; YES + 1.2 M sorbitol) | MIC [4] | MIC [5] | MIC [6] | MIC [7]
1 | CC[C@H](C)C[C@H](C)CCCCCCCCC(=O)N[C@H]1C[C@@H](O)[C@@H](NCCN)NC(=O)[C@@H]2[C@@H](O)CCN2C(=O)[C@H]([C@H](O)CCN)NC(=O)[C@H]([C@H](O)[C@@H](O)c2ccc(O)cc2)NC(=O)[C@@H]2C[C@@H](O)CN2C(=O)[C@H]([C@@H](C)O)NC1=O [caspofungin] | 10 mg/L (≈ 9.15 µM) | 50 mg/L (≈ 45.7 µM) | 0.5 mg/L (≈ 0.457 µM) | – | – | – | – | – | – | –
2 | O=c1oc2ccc3ccccc3c2cc1-c1ccccc1CO [compound 12] | – | – | – | > 200 mg/L | > 200 mg/L | > 200 mg/L | 50 mg/L | 200 mg/L | 50 mg/L | 100 mg/L
3 | O=c1oc2ccccc2cc1-c1ccccc1CO [compound 15] | – | – | – | > 200 mg/L | > 200 mg/L | > 200 mg/L | 200 mg/L | > 200 mg/L | 100 mg/L | 25 mg/L
